Values quoted from earlier work, collected in US20190202814A1, “PROCESSES FOR PREPARATION OF EMPAGLIFLOZIN” (CADILA HEALTHCARE LIMITED, priority 2015, published 2019).

Key:
[1] = crystalline solid

OC[C@H]1O[C@@H](c2ccc(Cl)c(Cc3ccc(O[C@H]4CCOC4)cc3)c2)[C@H](O)[C@@H](O)[C@@H]1O [Empagliflozin, (1S)-1,5-anhydro-1-{4-chloro-3-(4-[(3S)-tetrahydrofuran-3-yloxy]benzyl}phenyl)-D-glucitol]
solubility in acetonitrile (acetonitrile): very slightly soluble | solubility in ethanol (ethanol): very slightly soluble | solubility in methanol (methanol): sparingly soluble | solubility in toluene (toluene): practically insoluble | solubility in water (water): very slightly soluble | hygroscopicity [1]: non-hygroscopic
